# Results from US9682966B2, “Kappa opioid ligands” (The Scripps Research Institute, priority 2012, dated 2017).
# Molecular target: kappa opioid receptor (OPRK1) (Homo sapiens (Human), UniProt P41145)
# Assay: OPRK1 antagonist assay (b-arrestin-2-TEV / b-lactamase reporter, EC80 U-50488 challenge)
# Format: cell-based
# Conditions: OPRK1 antagonist assay vs EC80 U-50488
# kappa opioid receptor (OPRK1), sequence (P41145 whole entry): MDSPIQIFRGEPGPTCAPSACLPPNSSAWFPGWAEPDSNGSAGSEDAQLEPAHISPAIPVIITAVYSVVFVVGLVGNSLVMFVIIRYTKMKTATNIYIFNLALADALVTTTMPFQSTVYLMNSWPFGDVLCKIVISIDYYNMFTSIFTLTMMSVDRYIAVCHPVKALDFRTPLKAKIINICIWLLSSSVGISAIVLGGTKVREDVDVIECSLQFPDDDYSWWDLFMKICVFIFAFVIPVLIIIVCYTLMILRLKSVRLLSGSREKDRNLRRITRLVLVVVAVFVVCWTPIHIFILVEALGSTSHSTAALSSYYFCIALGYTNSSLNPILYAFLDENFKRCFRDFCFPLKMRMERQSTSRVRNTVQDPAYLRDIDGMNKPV
row,SMILES,IC50
1,CO[C@@H]1CN(c2nc(C)c(C)cc2-c2nc(C)no2)CC[C@@H]1NC1CCCCC1 [compound 342],48 nM
2,Cc1ccc2nc(N3CCC(NC4CCC4)CC3)c(-c3nc(C)no3)cc2c1 [compound 370],37 nM
3,Cc1cc(C)c2nc(N3CCC(NCC(C)C)CC3)c(-c3nc(C)no3)cc2c1 [compound 364],18 nM
4,Cc1ccc2nc(N3CCC(NC4CCCC4)CC3)c(-c3nc(C)no3)cc2c1 [compound 369],2 nM
5,COC(=O)c1cnc(N2CCC(NC3CCCCC3)C(O)C2)c(Br)c1 (stereo not drawn) [compound 103],137 nM

# Second part, the compound after the results:
row,IC50,SMILES
1,> 10000 nM,Cc1ccc2nc(N3CCC(C)(NC4CCOCC4)CC3)c(-c3nc(C)no3)cc2c1 [C74]
2,> 10000 nM,COC(=O)c1cc(Br)cnc1N1CCC(N2CCOCC2)CC1 [C5]
3,> 10000 nM,O[C@@H]1CCCC[C@H]1NC1CCN(c2ccc(Cl)cn2)CC1 [C12]
4,> 10000 nM,CCOC(=O)c1cc(C(N)=O)c(C)nc1N1CCC(NC2CCCCC2)CC1 [C28]
